Measurements from US5834318A, “Screening of combinatorial peptide libraries for selection of peptide ligand useful in affinity purification of target proteins” (Bayer Corporation, priority 1995, dated 1998).
Where no end group is shown, it is not given here.

Assays:
Factor IX zymogen [1] = target: T1, Factor IX zymogen (Homo sapiens, UniProt P00740); experiment: Two color peptide library immunostaining chromatography of hexamer library; assay type: binding; parameters: purchased Enzyme Research Labs; South Bend, Ind; conditions: 6 beads isolated from two independent analyses
Protocol: (§1) HPLC Library Immuno-Assays To differentiate between detecting reagent-binding and target-binding peptide-resin beads, we developed a two color peptide library staining chromatography technique. FIG. 1 is a schematic of the preferred embodiment of the technique. All assays were performed on an Ultrafast Microprotein Analyzer in a 2.1 mm I.D.×150mm long stainless steel column (volume=520 μL) at 37° C. Dry library resin was packed into the column by vacuum, then the column was attached to the detector flow cell and washed with 20 column volumes of 20% methanol/water, 5 column volumes of 100% Buffer A (10 mM HEPES, 100 mM NaCl, 2.5 mM CaCl2, 20 mg/mL D-mannitol; all from Sigma Chemical Co.; St. Louis, Mo.), then 5 column volumes of 50% Buffer B (Buffer A with 1.0M NaCl) to clean the resin. The complete assay comprised of seven chromatography injection programs sequentially linked and executed as a batch (EXChrom Chromatography Data System, Scientific Software, Inc.; San Ramon, Calif.). Each injection program was 90 min long. At the start of each injection program, a 1.0 mL sample loop of reagent was injected at 200 μL/min for 3.5 min, then allowed to perfuse the column at 5 μL/min for 50 min before the flow increased to 400/μL/min for the duration of the run. At 60-75 min, a salt gradient from 0.1M to 1.0M NaCl eluted non-specific binding proteins. […]

Factor IX zymogen [2] = target: T1, Factor IX zymogen; experiment: Plasma-derived Factor IX affinity chromatography; assay type: binding; parameters: A 1.0 ml injection of human citrated plasma was contacted with an acetyl-YANKGY-TSK column; from tissue; host or cells: human citrated plasma; conditions: 1.0 ml human citrated plasma
Protocol: (§2) Affinity Purification of Target Protein Affinity purification of target protein was used to assess the ability to purify proteins with the peptide sequences identified as being specific. […] The deprotected peptide-resin was dry packed into a blank column as described above and washed with 20 column volumes of 20% methanol/water, then 10 column volumes of Buffer A, and assayed by sequential 1.0 mL injections of 1) Buffer A blank, 2) 0.5% HSA, and 3) target protein in 0.5% HSA. Non-specifically bound proteins were washed off the column in a step gradient of 1.0M NaCl for two column volumes, and the target protein was eluted from the column in a weak acid solution.
Plasma-Derived Factor IX Affinity Chromatography The relevance of this library-derived peptide ligand is to purify human Factor IX zymogen from unpurified human plasma. A 1.0 ml injection of human citrated plasma was contacted with an acetyl-YANKGY-TSK column in the manner taught in the above example. Flow through and acid peaks were collected on ice and immediately assayed for total protein, SDS-PAGE and Western blot analyses. […] Samples were normalized to total protein as described before. There are numerous protein bands in the starting material, the predominant being albumin. The Factor IX band is not visible in any fraction in the Commassie stained gel. […] With one pass over the YANKGY-TSK affinity column, analyzing total protein and by Western blot, the approximate purification was 200 fold from plasma.

streptavidin = streptavidin (Streptomyces avidinii, UniProt P22629); conditions: well known in the art; cited from earlier work
[3] = target: T2, human serum albumin (HSA) (Homo sapiens, UniProt P02768); experiment: Binding of carrier protein to peptide-resin column; conditions: 0.5% HSA; eluted by the salt wash, no peak during acid elution
T2 construct: purchased Miles, Inc., Clayton, N.C
Protocol: as §2
(§3) Factor IX/Albumin Affinity Purification The library-derived peptide identified above binds and purifies a mixture of a commercially available, highly purified Factor IX zymogen in a solution of human serum albumin. […] This peptide-resin was tested for its ability to bind Factor IX. […] However, this was eluted by the salt wash as evidenced by the absence of a peak during the acid elution. In contrast, when Factor IX was added to the HSA, there was a distinct peak eluted by the acid.

Factor IX zymogen [4] = target: T1, Factor IX zymogen; experiment: Factor IX/albumin affinity purification on peptide-resin column; assay type: binding; parameters: purchased Enzyme Research Labs; South Bend, Ind
Protocol: as §2, §3
A direct correlation was seen between the acid peak area and the amount of Factor IX injected. […] Aliquots of fractions taken from this run were assayed for Factor IX detection by ELISA (data not shown). […] Factor IX may be partially denatured during the acid elution which could account for the lack of full recovery based on ELISA results. Indeed, controls of adding acid to Factor IX prior to analysis in the ELISA do show a 40 to 50% decrease in the ELISA signal. The remainder of the fractions were precipitated in cold (-20° C.) acetone and analyzed by reducing SDS-PAGE, normalizing sample to total protein.

[5] = target: T3, Ribonuclease S (RNase S) protein (Bos taurus, UniProt P61823); experiment: Two color peptide library immunostaining chromatography (HPLC library immunoassay), validation; assay type: binding; conditions: peptide-resin diluted 1:20 w/w with TSK-Blank
T3 sequence (P61823 47-150 limits assumed): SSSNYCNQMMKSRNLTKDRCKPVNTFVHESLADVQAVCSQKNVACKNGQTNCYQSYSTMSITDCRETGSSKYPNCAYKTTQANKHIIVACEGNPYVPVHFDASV
Protocol: as §1

RNase S protein = target: T4, RNase S protein (Bos taurus, UniProt P61823); experiment: HPLC affinity chromatography validation on peptide-resin; assay type: binding; conditions: 42 nmoles RNase S protein injected; 2 % acetic acid wash, peak at 22 min
T4 sequence (P61823 47-150 limits assumed): T3 sequence (P61823 47-150 limits assumed)
Protocol: as §2
Ribonuclease S Protein Affinity Chromatography In this embodiment the HPLC affinity methodology is validated by the previously described RNase S protein/YNFEVL peptide system. Peptide synthesis was performed as taught in the previous section. […] 42 nmoles of RNase S protein was injected in a 1.0 mL volume onto the column at 200 μL/min for 3 min. The flow was decreased to 5 μL/min for 5 min to perfuse the column, then increased to 400 μL/min to wash off the unbound protein. At 13 min, an injection of 1.0 mL Buffer A with 1.0M NaCl eluted non-specific binding proteins, then the column was returned to 0.1M NaCl until 19 min when a steep gradient to 2 % acetic acid in water and a flow of 800 μL/min began. […]

T1 sequence (P00740 29-461 limits assumed): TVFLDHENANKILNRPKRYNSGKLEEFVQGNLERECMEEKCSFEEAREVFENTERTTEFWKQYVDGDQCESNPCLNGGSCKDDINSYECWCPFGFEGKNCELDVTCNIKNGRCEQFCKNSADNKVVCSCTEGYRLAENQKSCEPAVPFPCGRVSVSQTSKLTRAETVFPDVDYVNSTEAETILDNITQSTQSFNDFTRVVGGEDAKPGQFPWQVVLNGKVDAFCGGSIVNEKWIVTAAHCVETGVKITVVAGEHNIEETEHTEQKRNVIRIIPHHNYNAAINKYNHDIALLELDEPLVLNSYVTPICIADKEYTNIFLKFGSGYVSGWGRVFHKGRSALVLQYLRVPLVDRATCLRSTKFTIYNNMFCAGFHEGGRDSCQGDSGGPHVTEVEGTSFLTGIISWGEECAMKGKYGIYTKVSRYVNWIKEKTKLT
T2 sequence (P02768 25-609): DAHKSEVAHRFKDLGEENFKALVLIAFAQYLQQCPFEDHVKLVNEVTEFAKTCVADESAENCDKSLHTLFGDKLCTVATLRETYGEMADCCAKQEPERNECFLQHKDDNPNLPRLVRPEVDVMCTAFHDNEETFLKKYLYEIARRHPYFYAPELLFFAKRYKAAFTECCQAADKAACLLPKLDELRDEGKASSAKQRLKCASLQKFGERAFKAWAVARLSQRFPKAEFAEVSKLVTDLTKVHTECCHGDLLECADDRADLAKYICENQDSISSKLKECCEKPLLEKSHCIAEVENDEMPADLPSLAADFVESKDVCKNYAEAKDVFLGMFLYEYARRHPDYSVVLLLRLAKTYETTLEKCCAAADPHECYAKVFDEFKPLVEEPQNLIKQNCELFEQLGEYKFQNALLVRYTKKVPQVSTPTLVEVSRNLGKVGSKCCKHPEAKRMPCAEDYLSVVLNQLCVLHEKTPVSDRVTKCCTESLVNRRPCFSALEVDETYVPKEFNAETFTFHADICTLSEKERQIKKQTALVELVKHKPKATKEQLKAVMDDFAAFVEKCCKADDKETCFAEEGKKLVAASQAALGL
Chain of streptavidin (P22629 25-183, species assumed): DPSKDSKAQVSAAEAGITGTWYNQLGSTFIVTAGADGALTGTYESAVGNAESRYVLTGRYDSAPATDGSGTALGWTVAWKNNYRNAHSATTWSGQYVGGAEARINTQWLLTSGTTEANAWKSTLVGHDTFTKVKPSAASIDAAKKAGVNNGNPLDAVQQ

YNYFNQ
bead staining in library immunoassay (red = target specific) (Factor IX zymogen [1]): red bead

Ac-YANKGY [acetyl-YANKGY-TSK]
Factor IX in acid peak by Western blot (Factor IX zymogen [2]): a very large band in the acid peak
Factor IX in flow through by Western blot (Factor IX zymogen [2]): no Factor IX in the flow through

HPQ
binding to streptavidin (streptavidin): will bind streptavidin

YANKGY [YANKGY-TSK]
HSA binding to column [3]: bound to the column to a small extent
bead staining in library immunoassay (red = target specific) (Factor IX zymogen [1]): red bead
Factor IX detected in NaCl peak by ELISA, % of amount injected (Factor IX zymogen [4]; 220 μg Factor IX in HSA): 17%
Factor IX detected in acid peak by ELISA, % of amount injected (Factor IX zymogen [4]; 220 μg Factor IX in HSA): 25%
Factor IX detected in flow through peak by ELISA (Factor IX zymogen [4]; 220 μg Factor IX in HSA): No Factor IX was detected
Factor IX in NaCl wash and acid peak by Western blot (Factor IX zymogen [4]; 220 μg Factor IX in HSA): dark bands corresponding to Factor IX
Factor IX in flow-through fractions by Western blot (Factor IX zymogen [4]; 220 μg Factor IX in HSA): no detectable Factor IX
binding of Factor IX to peptide-resin (Factor IX zymogen [4]; Factor IX in 0.5% HSA, acid elution): does bind Factor IX
approximate purification of Factor IX from plasma (Factor IX zymogen [2]; one pass, by total protein and Western blot): ~200 fold

YNFEVL [YNFEVL-TSK]
frequency of dark blue beads (non-specific or immunoreagent-specific interactions) [5]: less than 0.01%
frequency of red beads (target protein interacting with peptide-resin beads) ([5]; RNase S protein in HSA carrier): 5%
elution of bound RNase S protein (RNase S protein): target protein eluted in the acid wash
